From BindingDB's records for doi:10.7270/Q2NG4P4X (Burnham Center For Chemical Genomics, 2011)

target: Beta-galactosidase (Escherichia coli, UniProt Q8VNN2); assay: detection-enzyme interference by beta-gal modulators – biochemical, E. coli enzyme, set 3, artefact control for CCR6 antagonist project, dose response (AID 504712)
Sequence (Q8VNN2 whole entry): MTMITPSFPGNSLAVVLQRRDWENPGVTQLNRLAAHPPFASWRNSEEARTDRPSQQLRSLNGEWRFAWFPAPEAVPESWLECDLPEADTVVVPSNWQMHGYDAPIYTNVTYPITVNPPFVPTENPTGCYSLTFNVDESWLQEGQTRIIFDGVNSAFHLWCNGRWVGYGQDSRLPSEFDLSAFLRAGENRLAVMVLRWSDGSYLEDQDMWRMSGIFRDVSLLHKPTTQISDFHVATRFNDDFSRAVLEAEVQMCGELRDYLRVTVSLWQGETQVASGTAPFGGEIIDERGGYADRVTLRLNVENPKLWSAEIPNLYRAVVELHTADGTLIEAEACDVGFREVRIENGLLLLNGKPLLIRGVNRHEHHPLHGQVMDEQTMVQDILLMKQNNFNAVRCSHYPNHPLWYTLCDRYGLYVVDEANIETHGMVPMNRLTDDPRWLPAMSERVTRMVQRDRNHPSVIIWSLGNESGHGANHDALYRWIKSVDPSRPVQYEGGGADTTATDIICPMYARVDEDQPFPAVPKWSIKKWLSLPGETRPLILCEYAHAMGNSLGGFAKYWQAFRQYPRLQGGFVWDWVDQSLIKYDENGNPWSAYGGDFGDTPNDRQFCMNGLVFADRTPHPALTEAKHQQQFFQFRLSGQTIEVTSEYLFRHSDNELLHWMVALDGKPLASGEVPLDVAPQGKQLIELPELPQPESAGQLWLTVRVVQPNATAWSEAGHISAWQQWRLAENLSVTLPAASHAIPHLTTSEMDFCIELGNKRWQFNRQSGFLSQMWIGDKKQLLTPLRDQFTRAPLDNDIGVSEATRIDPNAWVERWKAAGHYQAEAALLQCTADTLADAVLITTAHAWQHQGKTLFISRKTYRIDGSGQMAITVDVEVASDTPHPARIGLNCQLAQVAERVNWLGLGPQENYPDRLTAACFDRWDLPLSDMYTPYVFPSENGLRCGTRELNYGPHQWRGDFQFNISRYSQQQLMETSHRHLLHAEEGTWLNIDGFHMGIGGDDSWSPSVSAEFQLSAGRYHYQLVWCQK

Point of comparison: O=Nc1c(C2C(=O)Nc3cc(Br)ccc32)[nH]c2ccccc12 (stereo not drawn) [6-bromoindirubin-3-oxime], IC50 40.8 µM. Against it:
- C=CCSC(N)=NN=CC1C=C(Br)C=C([N+](=O)[O-])C1=O (stereo not drawn) [N''-[[(E)-(3-bromo-5-nitro-6-oxo-1-cyclohexa-2,4-dienylidene)methyl]amino]carbamimidothioic acid prop-2-enyl ester] — higher, > 66.6 µM
- COc1ccc(-n2c(O)c(CN=Nc3nc(C)cc(C)n3)c3ccccc3c2=O)cc1OC [SMR000385482] — higher, > 66.6 µM
- O=C1C=CC=CC1CN=Nc1ccc([N+](=O)[O-])cn1 (stereo not drawn) [MLS002608402] — within 1.5-fold, 46 µM
- CC(NO)C(=O)C(=CN1CCCCC1)CN1CCCCC1 (stereo not drawn) — higher, > 66.6 µM
- CCOc1ccc(CN=Nc2ccc(S(=O)(=O)Nc3ccccc3C(=O)O)cc2[N+](=O)[O-])cc1OC [SMR001308940] — higher, > 66.6 µM
- Oc1cc(Sc2nnnn2-c2ccccc2)c(O)n1-c1cccc(Cl)c1 — higher, > 66.6 µM
- Oc1ccccc1-c1nnc(Sc2cc(O)n(-c3ccccc3)c2O)o1 [3-[[(2Z)-2-(6-oxo-1-cyclohexa-2,4-dienylidene)-3H-1,3,4-oxadiazol-5-yl]thio]-1-phenylpyrrolidine-2,5-dione] — higher, > 66.6 µM
- COc1cccc(CN=Nc2nc(Nc3ccccc3)nc(-n3nc(C)cc3C)n2)c1O [(6E)-6-[[2-[4-(3,5-dimethylpyrazol-1-yl)-6-phenylazanyl-1,3,5-triazin-2-yl]hydrazinyl]methylidene]-2-methoxy-cyclohexa-2,4-dien-1-one] — higher, > 66.6 µM
- Oc1cc(Sc2nnnn2C2CCCCC2)c(O)n1-c1ccccc1 [3-[(1-cyclohexyl-1,2,3,4-tetrazol-5-yl)sulfanyl]-1-phenyl-pyrrolidine-2,5-dione] — higher, > 66.6 µM
- O=C(O)c1ccc(N=NC=CCc2ccc([N+](=O)[O-])o2)cc1 [SMR000590759] — within 1.5-fold, 33 µM
- C=c1c(O)c(O)cc2c1=CC=C1[C@@]2(C)CC[C@@]2(C)[C@@H]3C[C@](C)(C(=O)O)CC[C@]3(C)CC[C@]12C — higher, > 66.6 µM
- Cc1cc2nc(-n3c(O)c[nH]c3=S)sc2cc1C [SMR000272190] — higher, > 66.6 µM
- CCOc1ccc(CN=Nc2ccc(S(=O)(=O)Nc3ccccc3C(=O)O)cc2[N+](=O)[O-])cc1 — higher, > 66.6 µM
- Cc1c(NN=C2C(=O)CC(C)(C)CC2=O)c(=O)n(-c2ccccc2)n1C [2-[(1,5-dimethyl-3-oxidanylidene-2-phenyl-pyrazol-4-yl)hydrazinylidene]-5,5-dimethyl-cyclohexane-1,3-dione] — higher, > 66.6 µM
- O=C(NN=CC1C=C([N+](=O)[O-])C=CC1=O)Nc1ccccc1 (stereo not drawn) [MLS000713965] — higher, > 66.6 µM
- COC1=CC=CC(CN=Nc2nc(Nc3ccc([N+](=O)[O-])cc3)nc(N3CCCC3)n2)C1=O (stereo not drawn) [2-hydroxy-3-methoxybenzaldehyde {4-[(4-nitrophenyl)amino]-6-pyrrolidin-1-yl-1,3,5-triazin-2-yl}hydrazone] — higher, > 66.6 µM
- Cc1ccc2nc(-n3c(O)c[nH]c3=S)sc2c1 — higher, > 66.6 µM
- Cc1cc(C)nc(NNC=C2C(=O)CC(c3ccc(F)cc3)CC2=O)n1 (stereo not drawn) — higher, > 66.6 µM
- O=C1C([N+](=O)[O-])=CC=CC1CN=Nc1ccc2ccccc2n1 (stereo not drawn) [(6E)-2-nitro-6-[(2-quinolin-2-ylhydrazinyl)methylidene]cyclohexa-2,4-dien-1-one] — higher, > 66.6 µM
- CC(C)(C)C1CCC(=NNC(=S)NCc2ccccc2)CC1 (stereo not drawn) [SMR000377499] — higher, > 66.6 µM
- Cc1cc(C)cc(-n2c(O)cc(Sc3nnnn3-c3ccccc3)c2O)c1 [1-(3,5-dimethylphenyl)-3-(1-phenyltetrazol-5-yl)sulfanylpyrrolidine-2,5-dione] — higher, > 66.6 µM
- C/C=C(\C)C(=O)OC1[C@H](OC(C)=O)C2(CO)C(CC1(C)C)C1=CCC3C4(C)CCC(O[C@@H]5O[C@H](C(=O)O)[C@@H](O[C@@H]6O[C@H](CO)[C@@H](O)[C@H](O)[C@H]6O)[C@H](O)[C@H]5O[C@H]5O[C@H](CO)[C@@H](O)[C@H](O)[C@H]5O)[C@](C)(CO)C4CCC3(C)[C@]1(C)C[C@H]2O (stereo partly drawn) [MLS002695979] — higher, > 66.6 µM
- C=CCOc1ccc(CN=Nc2ccc(S(=O)(=O)Nc3ccccc3C(=O)O)cc2[N+](=O)[O-])cc1OC [2-[[4-[2-[(3-methoxy-4-prop-2-enoxy-phenyl)methylidene]hydrazinyl]-3-nitro-phenyl]sulfonylamino]benzoic acid] — higher, > 66.6 µM
- O=C1C(O)=CC=CC1CN=Nc1ccc([N+](=O)[O-])cc1 (stereo not drawn) [MLS001207776] — higher, > 66.6 µM
- CC1=NN(c2ccccc2)C(=O)/C1=C/NN1C(=O)c2ccc3c4c(ccc(c24)C1=O)CC3 [SMR000171439] — higher, > 66.6 µM
- O=C1C(/C=N/c2ccc(N3CCOCC3)cc2)=CC(Cc2ccccc2)C=C1[N+](=O)[O-] (stereo not drawn) [SMR000231104] — higher, > 66.6 µM
- COc1ccc(-n2c(O)cc(Sc3nnc(-c4ccccc4)o3)c2O)cc1 [1-(4-methoxyphenyl)-3-[(5-phenyl-1,3,4-oxadiazol-2-yl)thio]pyrrolidine-2,5-dione] — higher, > 66.6 µM
- CN1C(=O)/C(=C2/C(=O)Nc3ccccc32)NC1=S [SMR000198608] — higher, > 66.6 µM
- Cc1cc(N=NCc2ccc(F)cc2)nc(-n2nc(C)cc2C)n1 [SMR000426945] — higher, > 66.6 µM
- N#CC(=C1C=CC(N=O)C(Cl)=C1)c1ccc(Cl)cc1 (stereo not drawn) [SMR001570423] — higher, > 66.6 µM
- Oc1c(Cl)c(N=CCc2ccccc2)c(O)c2ccccc12 [MLS002608293] — higher, > 66.6 µM
- O=C1C([N+](=O)[O-])=CC(Cl)=CC1CN=Nc1ccccn1 (stereo not drawn) [MLS000539830] — higher, > 66.6 µM
- O=C1C=CC([N+](=O)[O-])=CC1CN=Nc1ccccn1 (stereo not drawn) [MLS000585015] — higher, > 66.6 µM
- Cc1ccccc1-n1c(O)cc(Sc2nnc(-c3ccccc3)o2)c1O [1-(2-methylphenyl)-3-[(5-phenyl-1,3,4-oxadiazol-2-yl)sulfanyl]pyrrolidine-2,5-dione] — higher, > 66.6 µM
- O=C1Nc2ccc([N+](=O)[O-])cc2/C1=N/NC(=O)c1cc(-c2ccccc2Cl)nc2ccccc12 [2-(2-chlorophenyl)-N'-(2-keto-5-nitro-indol-3-yl)cinchoninohydrazide] — higher, > 66.6 µM
- O=C1C=CC([N+](=O)[O-])=CC1CN=Nc1nnn[nH]1 (stereo not drawn) — higher, > 66.6 µM
- CN(C)c1nc(N=NCc2ccccc2O)nc(Nc2ccc(F)cc2)n1 [(6E)-6-[[2-[4-(dimethylamino)-6-(4-fluoroanilino)-1,3,5-triazin-2-yl]hydrazinyl]methylidene]cyclohexa-2,4-dien-1-one] — higher, > 66.6 µM
- CCOC1=CC(=Cc2c(-c3ccccc3)[nH]n(-c3nc(-c4ccc(Br)cc4)cs3)c2=O)C=CC1=O — higher, > 66.6 µM
- CC(N=Nc1ccc2ccccc2n1)c1ccccc1O (stereo not drawn) [(6Z)-6-[1-[N'-(2-quinolyl)hydrazino]ethylidene]cyclohexa-2,4-dien-1-one] — higher, > 66.6 µM
- CCCC1CCC(=NNC(=S)NCCc2ccccc2)CC1 (stereo not drawn) [SMR000347544] — higher, > 66.6 µM
- CCOc1ccc(-n2c(O)cc(Sc3nnnn3-c3ccccc3)c2O)cc1 [SMR000271658] — higher, > 66.6 µM
- CN1C(=O)C(C2CC(c3ccc(Cl)cc3)N=N2)C(=O)N(C)C1=O (stereo not drawn) [SMR000439471] — higher, > 66.6 µM
